The source of these data is the Deep4Chem optical property database.

Where “and” joins values, the source holds several entries; their conditions need not be identical. Identical values can stand only once.

A short description of this data set: photoluminescence quantum yield (fraction); solvent given as SMILES.

In the case of `O=C(O)COc1ccc2[nH]c3c(c2c1)CCCC3=O`, the photoluminescence quantum yield was 0.01 (in C1CCOC1); 0.007 (in C1COCCO1); 0.024 (in CC#N); 0.012 (in CCCCCCCCCCCCO); 0.009 (in CCCCCCCCCCO); 0.017 (in CCCCCCCCO). Further, the photoluminescence quantum yield amounted to 0.016 (in CCCCCCO); 0.012 (in CCCCO); 0.017 (in CCO); 0.018 (in CCOC(C)=O); 0.07 (in CN(C)C=O); 0.051 (in CO). The photoluminescence quantum yield stood at 0.087 (in CS(C)=O), 0.026 (in Cc1ccccc1), 0.011 (in O) and 0.006 (in c1ccccc1).

In the case of `COc1cc(OC)c(C2=C3C(C)=CC(C)=[N+]3[B-](F)(F)n3c(C)cc(C)c32)c(OC)c1`, the photoluminescence quantum yield was 0.78 (in C1CCOC1); 0.55 (in CC#N); 0.69 (in CC(=O)C(C)(C)C); 0.8 (in CC(C)=O); 0.95 (in CCCCCC); 0.64 (in CCOC(C)=O). In addition, where the note is “in CO”, the photoluminescence quantum yield amounted to 0.68.

Regarding `COc1cc(OC)cc(C2=[O+][B-](F)(F)OC(c3ccc4ccccc4c3)=C2)c1`, the photoluminescence quantum yield was 0.01 (in CC#N); 0.01 (in CC(C)=O); 0.19 (in CCCCCC); 0.1 (in Cc1ccccc1); 0.05 (in ClCCl).

In turn, `CC(C)(C)c1cc(-c2cc3c(cc(-c4cc(C(C)(C)C)cc(C(C)(C)C)c4)n3-c3ccc(C(=C(c4ccccc4)c4ccccc4)c4ccccc4)cc3)n2-c2ccc(C(=C(c3ccccc3)c3ccccc3)c3ccccc3)cc2)cc(C(C)(C)C)c1` returned a photoluminescence quantum yield (in ClCCl) of 0.0013.

As for `Cc1cc(C2=C(c3cc(C)sc3C)P(=O)(c3ccccc3)c3ccccc32)c(C)s1` (stereo not drawn), for the setting “in C1CCOC1”, the photoluminescence quantum yield stood at 0.03.

Under “in C1CCOC1”, `O=C(c1ccc(/C(=C(/c2ccccc2)c2ccc(C(=O)c3ccc(-n4c5ccccc5c5ccccc54)cc3)cc2)c2ccccc2)cc1)c1ccc(-n2c3ccccc3c3ccccc32)cc1` returned a photoluminescence quantum yield of 0.268.

With `Cc1cc(C)c(B(c2c(C)cc(C)cc2C)c2cc3ccc4ccccc4c3c3c2cc(N(C)C)c2ccccc23)c(C)c1`, the photoluminescence quantum yield came to 0.23 (in C1CCCCC1); 0.09 (in C1CCOC1); 0.04 (in CC#N); 0.1 (in ClC(Cl)Cl); 0.14 (in c1ccccc1).

Regarding `CCCCN1C(=O)c2cc(Oc3ccc(C(C)(C)C)cc3)c3c4c(Oc5ccc(C(C)(C)C)cc5)cc5c(=O)[nH]/c(=C\c6ccccn6)c6cc(Oc7ccc(C(C)(C)C)cc7)c(c7c(Oc8ccc(C(C)(C)C)cc8)cc(c2c37)C1=O)c4c56`, the photoluminescence quantum yield stood at 0.336 (in C1CCOC1), 0.408 (in Cc1ccccc1) and 0.421 (in ClCCl).

Molecule `COc1ccc(-c2ccc3c(c2)nnn3C[C@H](N)C(=O)O)cc1` registered a photoluminescence quantum yield (in CO) of 0.17.

Consider `CN(C)c1ccc(C#CC2=C3CCc4ccccc4C3=[O+][B-](F)(F)O2)cc1`, for which, where the note is “in ClCCl”, the photoluminescence quantum yield came out at 0.

As to `CC/[NH+]=c1\cc2oc3cc(NCCNC(=O)C(NC(=O)OC(C)(C)C)C(C)C)c4ccccc4c3nc-2cc1C` (stereo not drawn), the photoluminescence quantum yield was found to be 0.35 (in CCO) and 0.48 (in O).

As to `C#CCNC1=C2C=C(c3cc4n(c3)[B-](F)(F)[N+]3=CC=CC3=C4c3c(C)cc(C)cc3C)C(C)=[N+]2[B-](F)(F)n2c(C)ccc21`, the photoluminescence quantum yield is, setting by setting: (in C1CCCCC1) 0.42; (in CCOC(C)=O) 0.06.

Where the note is “in ClC(Cl)Cl”, `CCn1c2ccccc2oc2c(C#N)c3c(oc4ccccc4n3CC)c(C#N)c21` had a photoluminescence quantum yield of 0.44.

In turn, `COc1cc(OC)cc(C2=[O+][B-](F)(F)OC(c3ccc4cc(OC)ccc4c3)=C2)c1` yielded a photoluminescence quantum yield (in CC#N) of 0.22; a photoluminescence quantum yield (in CC(C)=O) of 0.37; a photoluminescence quantum yield (in CCCCCC) of 0.26; a photoluminescence quantum yield (in Cc1ccccc1) of 0.79; a photoluminescence quantum yield (in ClCCl) of 0.95.

Molecule `c1ccc(C2c3ccccc3-c3ccccc32)cc1` gave a photoluminescence quantum yield (in CCO) of 0.19.

As to `CCN(CC)c1ccc(-c2c3c(n4ccc(C(C)=O)cc24)C(=O)N(CCCNC(=O)OC(C)(C)C)C3)cc1`, the photoluminescence quantum yield (in CO) was determined as 0.

As for `CN(C)c1ccc(C#Cc2ccc3ccc4ccc(C#Cc5ccc(N(C)C)cc5)c5ccc2c3c45)cc1`, the photoluminescence quantum yield (in CCCCCC) amounted to 0.632, the photoluminescence quantum yield (in CO) came to 0.256 and the photoluminescence quantum yield (in ClCCl) was 0.534.

On to `C1=Nc2cccc3cccc(c23)N1`, for which the photoluminescence quantum yield came to 0.0013 (in CC#N), 0.0005 (in CO), 0.0031 (in CS(C)=O) and 0.005 (in Cc1ccccc1).

In the case of `CCOc1cccc2c1O[B-](F)(F)[n+]1c3c(c4c(c1-2)-c1ccccc1CC4)-c1ccccc1CC3`, the photoluminescence quantum yield (in ClCCl) stood at 0.16.

In the case of `Cc1ccc2[nH]c(-c3ccc(-c4ccc(-c5ccc(-c6nc7cc(C)ccc7[nH]6)cc5)c(F)c4)cc3)nc2c1`, the photoluminescence quantum yield (in CN(C)C=O) was 0.98.

Take `FC(F)(F)c1ccc(C#Cc2ncc(-c3ccccc3)o2)cc1`: the photoluminescence quantum yield (in ClCCl) is 0.24.

Molecule `CCC1(CC)c2cc(N(c3ccccc3)c3ccccc3)ccc2-c2c1c1c(c3c2C(CC)(CC)c2cc(N(c4ccccc4)c4ccccc4)ccc2-3)C(CC)(CC)c2cc(N(c3ccccc3)c3ccccc3)ccc2-1` came in with a photoluminescence quantum yield (in C1CCOC1) of 0.27.

In turn, `Cc1cc(C)c(C2=C3C=C(/C=C/C(=O)OC(C)(C)C)C=[N+]3[B-](F)(F)n3cc(/C=C/C(=O)OC(C)(C)C)cc32)c(C)c1` showed a photoluminescence quantum yield (in ClCCl) of 0.4.

For `CC[N+]1=C(/C=C/C=C/C=C/C=C2/N(CCCCCC(=O)O)c3ccc(S(=O)(=O)[O-])cc3C2(C)C)C(C)(C)c2cc(S(=O)(=O)[O-])ccc21`, the photoluminescence quantum yield reads like this: (in CO) 0.52; (in O) 0.28.

Turning to `CN(C)c1ccc(/C=C/c2cc(/C=C/c3ccc(N(C)C)cc3)nc(N)n2)cc1`, the photoluminescence quantum yield was 0.65 (in Cc1ccccc1) and 0.55 (in ClC(Cl)Cl).

On to `Cc1cc(C)c2cc3cc(C)ncc3cc2c1`, for which the photoluminescence quantum yield (in CCO) was found to be 0.44.

In turn, `O=C(O)c1ccc(-c2nc(-c3ccccc3)c3ccccn23)cc1` had a photoluminescence quantum yield (in CC#N) of 0.13.

In the case of `CCOC(=O)C1=C(N)n2c(=O)c3ccccc3c(=O)n2C1c1ccc([N+](=O)[O-])cc1` (stereo not drawn), for the setting “in CS(C)=O”, the photoluminescence quantum yield worked out at 0.049.

Consider `CN(C)c1ccc(-c2c(/C=C3/C=Cc4ccccc4N3Cc3ccccc3)c(=O)c2=O)cc1`, for which the photoluminescence quantum yield was determined as 0.0146 (in C1CCCCC1), 0.0141 (in Cc1ccccc1) and 0.001 (in ClCCl).

On to `N#CC(C#N)=Cc1nc2ccc(C#Cc3ccc(N(c4ccccc4)c4ccccc4)cc3)cc2s1`, for which the photoluminescence quantum yield (in Cc1ccccc1) stood at 0.07.

As to `Cc1c2c(c(C)c3ccccc13)-c1cc3nc4ccccc4nc3cc1-2`, the photoluminescence quantum yield (in ClC(Cl)Cl) worked out at 0.72.

The molecule `COCCOCCOCCOCC(COCCOCCOCCOC)Oc1cc(/C=C/c2ccc(/C=C(\C#N)C(=O)c3ccccc3)cc2)c(OC(COCCOCCOCCOC)COCCOCCOCCOC)cc1/C=C/c1ccc(/C=C(\C#N)C(=O)c2ccccc2)cc1` gave a photoluminescence quantum yield (in ClCCl) of 0.23.

Take `CSc1ccc2c(c1)N(CCCN(C)C)c1ccccc1S2`: the photoluminescence quantum yield came out at 0.003 (in CC#N), 0.003 (in CO) and 0.003 (in O).

For `Oc1c(-c2ccco2)cccc1-c1nc2ccccc2s1`, the photoluminescence quantum yield is, setting by setting: (in CCO) 0.0057; (in ClCCl) 0.0137; (in O) 0.01.

With `Cc1cc(C)c(C2=C3C=c4c(c5ccccc5c5ccccc45)=[N+]3[B-](F)(F)n3c2cc2c4ccccc4c4ccccc4c23)c(C)c1`, the photoluminescence quantum yield was 0.64 (in C1CCCCC1); 0.55 (in C1CCOC1); 0.55 (in CC#N); 0.51 (in Cc1ccccc1); 0.51 and 0.55 (in ClCCl).

Turning to `OB(O)c1ccc(-c2ccc(N(c3ccccc3)c3ccccc3)cc2)cc1`, the photoluminescence quantum yield runs as follows: (in C1CCCCC1) 0.72; (in C1CCOC1) 0.65; (in CC#N) 0.68; (in CCO) 0.81; (in CCOC(C)=O) 0.66; (in CCOCC) 0.65. Where the note is “in CO”, this molecule had a photoluminescence quantum yield of 0.62.

The molecule `c1ccc(-c2nc(-c3ccccc3)n3ccccc23)cc1` returned a photoluminescence quantum yield (in ClC(Cl)Cl) of 0.14 and a photoluminescence quantum yield (in ClCCl) of 0.217.

In turn, `O=c1c2cc(C#Cc3ccccc3)ccc2nc2ccc(C#Cc3ccccc3)cn12` had a photoluminescence quantum yield (in ClCCl) of 0.41.

On to `O=[N+]([O-])c1ccc(/C=C/c2nc3c4ccccc4c4ccccc4c3o2)cc1`, for which, where the note is “in CC#N”, the photoluminescence quantum yield amounted to 0.2.

For the molecule `Cc1ccc(-n2cccc2)cc1`, the photoluminescence quantum yield (in CC#N) was 0.4 and the photoluminescence quantum yield (in CCCCCC) is 0.28.

The molecule `Cc1cccc2cc(-c3cc4cccc(C)c4oc3=O)oc12` showed a photoluminescence quantum yield (in CS(C)=O) of 0.88.

Turning to `Cc1ccc(-c2c3ccc([nH]3)c3nc(c(-c4ccc(C#N)cc4)c4ccc([nH]4)c4ccc([nH]4)c(-c4ccc(C)cc4)c4ccc2o4)C=C3)cc1`, the photoluminescence quantum yield is 0.179 (in C1CCOC1), 0.166 (in Cc1ccccc1) and 0.175 (in c1ccccc1).

For `F[B-]1(F)n2c(c3cccc4cccc2c43)=Nc2cccc[n+]21`, the photoluminescence quantum yield is, setting by setting: (in C1CCOC1) 0.99; (in CC#N) 0.99; (in CCCCCC) 0.99; (in Cc1ccccc1) 0.99; (in ClCCl) 0.99.

The molecule `Cc1ccccc1C1=C2C=CC(=[N+](C)C)C=[C]2[Ge]([CH3])([CH3])[c]2cc(N(C)C)ccc21` registered a photoluminescence quantum yield (in O) of 0.34.

The molecule `CCCC1=Cc2nc1ccc1[nH]c(cc1CCC)c1nc(c(OC)cc3[nH]c2cc3CCC)C(CCC)=C1` yielded a photoluminescence quantum yield (in Cc1ccccc1) of 0.18.
